Among the test systems are MDA-MB-435; SNB-19 CNS; HOP-92 NSCLC; SK-OV-3 ovarian; M14 melanoma; MOLT-4 leukemia; HS 578T breast; TK-10 renal; HCT-15 colon; UACC-62 melanoma.
What all share (assay): growth of human tumour cells (NCI), 48 h

Where “and” joins values, the source holds several entries; their conditions need not be identical. Equal values may be shown once.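 All cell lines were grown in 96-well plates and treated with compound for 48 hours. GI50 = concentration required for 50% inhibition of growth. The concentration for full growth arrest is given as TGI.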

As to `Nc1n[nH]c2ccc([C@H]3[C@@H]4C5CCC(C5)[C@@H]4c4c(ccc5[nH]ncc45)N3S(=O)(=O)C3CC3)cc12` (some centres undefined), the GI50 in the assay with MDA-MB-435 is 0.141 µM; with SNB-19 CNS, 0.21 µM; in the assay on HOP-92 NSCLC it was 0.422 µM; with SK-OV-3 ovarian, 5.59 µM; in the assay with M14 melanoma, 0.146 µM; in the assay with MOLT-4 leukemia it was 0.184 µM. The GI50 was 0.17 µM in the assay with HS 578T breast, 3.98 µM in the assay with TK-10 renal, 0.198 µM in the assay with HCT-15 colon and 0.137 µM in the assay with UACC-62 melanoma. Moreover, the TGI in the assay with MDA-MB-435 was 1.35 µM; with SNB-19 CNS, greater than 38.3 µM; in the assay with HOP-92 NSCLC, 11.1 µM; in the assay with SK-OV-3 ovarian, 38.8 µM; with M14 melanoma, 15.1 µM; in the assay on HS 578T breast, 3.31 µM. The TGI with TK-10 renal was 36.4 µM; with HCT-15 colon it was greater than 28.8 µM; in the assay on UACC-62 melanoma, 5.54 µM.
Take `Nc1ncnc2occ(-c3ccc(NC(=O)Nc4cc(C(F)(F)F)ccc4F)cc3)c12`: the GI50 in the assay on MDA-MB-435 was 4.35 µM and 2.37 µM; with SNB-19 CNS, 8.29 µM and 5.71 µM; in the assay on HOP-92 NSCLC, 3.98 µM and 3.4 µM; in the assay on SK-OV-3 ovarian, 8.24 µM and 4.19 µM; with M14 melanoma, 5.86 µM and 2.54 µM; in the assay with MOLT-4 leukemia, 7.47 µM and 3.7 µM. Moreover, the GI50 was 0.773 µM and 2.09 µM in the assay on HS 578T breast; 4.78 µM and 1.6 µM in the assay with TK-10 renal; 6.31 µM and 3.97 µM with HCT-15 colon; 4.29 µM and 2.33 µM in the assay with UACC-62 melanoma. The TGI was 11.3 µM and 5.59 µM with MDA-MB-435; 23.3 µM and 19.5 µM in the assay with SNB-19 CNS; 12.1 µM and 11.5 µM in the assay with HOP-92 NSCLC; 25 µM and 12.6 µM in the assay on SK-OV-3 ovarian; 21.4 µM and 7.11 µM in the assay on M14 melanoma; 23.6 µM and 14.4 µM in the assay with MOLT-4 leukemia. In addition, the TGI in the assay with HS 578T breast was 9.1 µM and 9.04 µM; with TK-10 renal it was 14.3 µM and 8.76 µM; with HCT-15 colon, 21.7 µM and 13.5 µM; with UACC-62 melanoma, 9.76 µM and 5.8 µM.
With `Oc1c(CCl)cc(Cl)cc1Cc1cc(Cl)cc(Cc2cc(Cl)cc(CCl)c2O)c1O`, the GI50 with MDA-MB-435 is 3.89 µM; in the assay on SNB-19 CNS, 3.02 µM; in the assay with HOP-92 NSCLC, 1.91 µM; in the assay with SK-OV-3 ovarian it was 3.25 µM; in the assay with M14 melanoma it was 3.54 µM; in the assay on MOLT-4 leukemia it was 2.67 µM. Also, the GI50 in the assay with HS 578T breast is 3.02 µM; with TK-10 renal, 3.9 µM; with HCT-15 colon, 2.88 µM; in the assay with UACC-62 melanoma it was 2.9 µM. Moreover, the TGI was 21.4 µM in the assay with MDA-MB-435; 15.9 µM in the assay on SNB-19 CNS; 5.81 µM with HOP-92 NSCLC; 11.4 µM with SK-OV-3 ovarian; 15.7 µM with M14 melanoma; 13.4 µM in the assay with MOLT-4 leukemia. In addition, the TGI stood at 22.6 µM in the assay with HS 578T breast, 24.1 µM with TK-10 renal, 12 µM with HCT-15 colon and 11.1 µM in the assay on UACC-62 melanoma.
Regarding `COc1ccc(/C=C/C(=O)c2ccc(B(O)O)cc2)cc1O`, the GI50 in the assay with MDA-MB-435 is 2.11 µM; in the assay on SNB-19 CNS, 18.7 µM; in the assay on HOP-92 NSCLC, 3.46 µM; in the assay with SK-OV-3 ovarian, 22.2 µM; with M14 melanoma, 8.03 µM; with MOLT-4 leukemia it was 10.9 µM. Moreover, the GI50 is 12.6 µM in the assay with HS 578T breast, 30.4 µM with TK-10 renal, 4.95 µM in the assay on HCT-15 colon and 14.3 µM with UACC-62 melanoma. For the same compound, the TGI with MDA-MB-435 is 5.5 µM; with SNB-19 CNS it was greater than 64.3 µM; in the assay on HOP-92 NSCLC, 29.8 µM; in the assay with SK-OV-3 ovarian it was greater than 89.1 µM; in the assay on M14 melanoma it was 29.6 µM; with MOLT-4 leukemia, greater than 100 µM. Also, the TGI is greater than 100 µM in the assay on HS 578T breast, greater than 67.6 µM in the assay on TK-10 renal, greater than 39.3 µM with HCT-15 colon and 33.2 µM with UACC-62 melanoma.
Consider `CCOC(=O)Nc1nc(-c2ccccc2)c(C)s1`, for which the TGI is greater than 100 µM with MDA-MB-435; greater than 100 µM with SNB-19 CNS; 90.5 µM with HOP-92 NSCLC; greater than 100 µM in the assay with SK-OV-3 ovarian; greater than 100 µM in the assay with M14 melanoma; 45.5 µM in the assay with MOLT-4 leukemia. For the same compound, the TGI in the assay with HS 578T breast, in the assay on TK-10 renal, with HCT-15 colon and in the assay with UACC-62 melanoma was greater than 100 µM each time.
On to `Cc1cc(S(=O)(=O)Nc2n[nH]c(-c3ccc(Cl)cc3)c2C#N)c(S)cc1Cl`, for which the GI50 in the assay with MDA-MB-435, with SNB-19 CNS, in the assay with HOP-92 NSCLC, with SK-OV-3 ovarian, with M14 melanoma and in the assay on MOLT-4 leukemia was greater than 100 µM in each case. Further, the GI50 with HS 578T breast is 35.8 µM; in the assay with TK-10 renal, greater than 100 µM; with HCT-15 colon it was greater than 100 µM; in the assay on UACC-62 melanoma it was greater than 100 µM. For the same compound, the TGI with MDA-MB-435, in the assay on SNB-19 CNS, in the assay with HOP-92 NSCLC, in the assay with SK-OV-3 ovarian, with M14 melanoma and in the assay on MOLT-4 leukemia was greater than 100 µM each time. Further, the TGI with HS 578T breast, with TK-10 renal, in the assay with HCT-15 colon and in the assay with UACC-62 melanoma was greater than 100 µM in each case.
As for `CCN1C2=C(SC(=S)C1=C1SC(C(=O)c3ccccc3)=C(C(=O)c3ccccc3)S1)SC(=Nc1ccccc1)C2=O`, the GI50 in the assay on MDA-MB-435 is 9.41 µM; in the assay on SNB-19 CNS it was 53.4 µM; in the assay on HOP-92 NSCLC, 22.5 µM; in the assay on SK-OV-3 ovarian, greater than 96.7 µM; in the assay on M14 melanoma, greater than 100 µM; with MOLT-4 leukemia it was 0.625 µM. The GI50 in the assay on HS 578T breast is 2.58 µM; in the assay with TK-10 renal, 13.3 µM; in the assay with HCT-15 colon, greater than 100 µM; in the assay on UACC-62 melanoma, 12 µM. The TGI is greater than 100 µM with MDA-MB-435; greater than 100 µM with SNB-19 CNS; greater than 100 µM with HOP-92 NSCLC; greater than 100 µM in the assay on SK-OV-3 ovarian; greater than 100 µM with M14 melanoma; greater than 22.2 µM in the assay with MOLT-4 leukemia. Further, the TGI in the assay on HS 578T breast is 72.9 µM; with TK-10 renal, greater than 83.7 µM; in the assay with HCT-15 colon, greater than 100 µM; in the assay with UACC-62 melanoma, greater than 70.1 µM.

(Values after PubChem BioAssay (NCI).)
